# Test results: patent US20250041262A1, “COMPOSITIONS FOR THE TREATMENT OF FGFR3-RELATED COGNITIVE DEFICITS WITH A CATECHIN” (INSTITUT NATIONAL DE LA SANTÉ ET DE LA RECHERCHE MÉDICALE, priority 2021, published 2025)
# Experiments:
# [1] = system: Fgfr3^N534K/+ mice (hypochondroplasia mouse model); assay: Novel object location (NOL), spatial memory, HCH mouse model; format: in vivo
# Protocol: 4 months old Fgfr3^N534K/+ mice and Fgfr3^A385E/+ mice received daily subcutaneous administration of (−)-epicatechin (0.15 mg/kg) or vehicle (HcL 3.5 mM, DMSO 2%) for at least seven days. For habituation and testing NOR and NOL, injection was performed 1 hour before testing phase. Timing of injection for the different tests: NOL at 7 days, NOR at 14 days, TST: at 22 days and FST at 24 days. For the novel object location task, all procedures were identical to the novel object recognition task except that during the testing phase, rather than presenting a novel object, mice encountered both familiar objects, with one object located in a different place in the arena. The time and frequency of exploration of the novel/relocated object is measured as an index of memory. Behavior was scored on videos by two observers blind to treatment and the total exploration time of the objects was quantified in the testing phases. To confirm the direct implication of brain FGFR3 in cognitive disorders observed in Fgfr3^N534K/+ mice, we decided to treat mice with (−)-epicatechin bottle treatment. The animals were treated with bottle (−)-epicatechin (3 mg/L) during 4 weeks before behavioural tests.
# [2] = system: Fgfr3^N534K/+ mice (hypochondroplasia mouse model); assay: Novel object recognition (NOR), episodic memory, HCH mouse model; format: in vivo
# Protocol: (§1) 4 months old Fgfr3^N534K/+ mice and Fgfr3^A385E/+ mice received daily subcutaneous administration of (−)-epicatechin (0.15 mg/kg) or vehicle (HcL 3.5 mM, DMSO 2%) for at least seven days. For habituation and testing NOR and NOL, injection was performed 1 hour before testing phase. Timing of injection for the different tests: NOL at 7 days, NOR at 14 days, TST: at 22 days and FST at 24 days.
# (§2) We used a modified version of the NOR task as described in Glatigny et al., 2019. Mice were transported a short distance from the holding mouse facility to the testing room in their home cages and left undisturbed for at least one hour before the beginning of the test. The testing room was lit with two 60-W light bulbs and behavior sessions were recorded with a camera above the testing arena (grey plastic box (60×40×32 cm)). […] The objects elicited equal levels of exploration as determined in pilot experiments and training phase. […]
# (§3) The following behaviors were considered as exploration of the objects: sniffing, licking, or touching the object with the nose or with the front legs or directing the nose to the object at a distance≤1 cm. Investigation was not scored if the mouse was on top of the object or completely immobile. The discrimination index was calculated as (time spent exploring the new object-time spent exploring the familiar object)/(total time spent exploring both objects). […]
# [3] = system: Fgfr3^A385E/+ mice (CAN mouse model); assay: Novel object recognition (NOR), CAN mouse model; format: in vivo; details: subcutaneous injections for 7 days at least; 4-month-old mice
# Protocol: as §1, §2, §3
# [4] = system: Fgfr3^A385E/+ mice (CAN mouse model); assay: Forced swim test (FST), CAN mouse model; format: in vivo; details: subcutaneous injections for 7 days at least; 4-month-old mice
# Protocol: (§4) 4 months old Fgfr3^N534K/+ mice and Fgfr3^A385E/+ mice received daily subcutaneous administration of (−)-epicatechin (0.15 mg/kg) or vehicle (HcL 3.5 mM, DMSO 2%) for at least seven days. For habituation and testing NOR and NOL, injection was performed 1 hour before testing phase. Timing of injection for the different tests: NOL at 7 days, NOR at 14 days, TST: at 22 days and FST at 24 days. This test is based on a similar observation than the TST. Each mouse is placed in a cylinder (height: 25 cm and diameter: 10 cm) filled with water (23-25° C.). Mice were tested for 5 min, and the time spent immobile (behavioral despair) was quantified.
# [5] = system: Fgfr3^N534K/+ mice (hypochondroplasia mouse model); assay: Tail suspension test (TST), HCH mouse model; format: in vivo; details: bottle treatment 3 mg/L, 4 weeks; adult mice
# Protocol: This test is based on the observation that rodents, after initial escape-oriented movements, develop an immobile posture when placed in an inescapable stressful situation. Each mouse is hung in an uncontrollable fashion by their tail at above 25 cm from the floor. Mice were tested for 5 min, and the time spent immobile was quantified. To confirm the direct implication of brain FGFR3 in cognitive disorders observed in Fgfr3^N534K/+ mice, we decided to treat mice with (−)-epicatechin bottle treatment. The animals were treated with bottle (−)-epicatechin (3 mg/L) during 4 weeks before behavioural tests.
# [6] = system: Fgfr3^N534K/+ mice (hypochondroplasia mouse model); assay: Forced swim test (FST), HCH mouse model; format: in vivo; details: adult mice
# Protocol: as §4, with “quantified. To confirm the direct implication of brain FGFR3 in cognitive disorders observed in Fgfr3^N534K/+ mice, we decided to treat mice with (−)-epicatechin bottle treatment. The animals were treated with bottle (−)-epicatechin (3 mg/L) during 4 weeks before behavioural tests.” for “quantified.”
# [7] = system: Fgfr3^N534K/+ mice (hypochondroplasia mouse model); assay: Morris water maze (MWM), spatial memory, HCH mouse model; format: in vivo; details: bottle treatment 3 mg/L, 4 weeks; adult mice
# Protocol: The Morris water maze (MWM) is a test of spatial learning for mice that relies on distal cues to navigate from a start location to locate a submerged escape platform. Spatial learning is assessed across repeated trials during 8 days and reference memory is determined by location of the platform area. To confirm the direct implication of brain FGFR3 in cognitive disorders observed in Fgfr3^N534K/+ mice, we decided to treat mice with (−)-epicatechin bottle treatment. The animals were treated with bottle (−)-epicatechin (3 mg/L) during 4 weeks before behavioural tests.
# [8] = system: Fgfr3^N534K/+ mice (hypochondroplasia mouse model); assay: Contextual fear conditioning (CFC), associative memory, HCH mouse model; format: in vivo; details: bottle treatment 3 mg/L, 4 weeks; adult mice
# Description: We performed on 4-month-old male mice a test related to the hippocampus associative memory (one-trial contextual fear conditioning, CFC). This test allows us to understand the ability of mice to remember an event associated with memory integration. During this behavorial test, we assess the freezing time of the mice, the mutant mice baseline was similar to control littermates during the training phase (p=0,2303). […] To confirm the direct implication of brain FGFR3 in cognitive disorders observed in Fgfr3^N534K/+ mice, we decided to treat mice with (−)-epicatechin bottle treatment. The animals were treated with bottle (−)-epicatechin (3 mg/L) during 4 weeks before behavioural tests.
# [9] = system: Fgfr3^N534K/+ mice (hypochondroplasia mouse model); assay: Bar beam, locomotion and fine coordination, HCH mouse model; format: in vivo; details: bottle treatment 3 mg/L, 4 weeks; adult mice
# Description: The bar beam is a test to measure fine motor coordination and balance in mice by assessing if the mice stay upright and walk across an elevated narrow beam to a safe platform. This test takes place over 2 consecutive days and we measured the time it takes for the mouse to traverse the beam and the maximum distance done To confirm the direct implication of brain FGFR3 in cognitive disorders observed in Fgfr3^N534K/+ mice, we decided to treat mice with (−)-epicatechin bottle treatment. The animals were treated with bottle (−)-epicatechin (3 mg/L) during 4 weeks before behavioural tests.
# [10] = system: Fgfr3^Y367C/+ mouse model; details: cited from earlier work
# FGFR3 = FGFR3 (Homo sapiens, UniProt P22607); details: reason for selection; no test described; cited from earlier work
# [11] = bottle treatment 3 mg/L, 4 weeks, adult mice
# [12] = subcutaneous injection, in vivo and/or in vitro
# FGFR3, sequence (P22607 23-806): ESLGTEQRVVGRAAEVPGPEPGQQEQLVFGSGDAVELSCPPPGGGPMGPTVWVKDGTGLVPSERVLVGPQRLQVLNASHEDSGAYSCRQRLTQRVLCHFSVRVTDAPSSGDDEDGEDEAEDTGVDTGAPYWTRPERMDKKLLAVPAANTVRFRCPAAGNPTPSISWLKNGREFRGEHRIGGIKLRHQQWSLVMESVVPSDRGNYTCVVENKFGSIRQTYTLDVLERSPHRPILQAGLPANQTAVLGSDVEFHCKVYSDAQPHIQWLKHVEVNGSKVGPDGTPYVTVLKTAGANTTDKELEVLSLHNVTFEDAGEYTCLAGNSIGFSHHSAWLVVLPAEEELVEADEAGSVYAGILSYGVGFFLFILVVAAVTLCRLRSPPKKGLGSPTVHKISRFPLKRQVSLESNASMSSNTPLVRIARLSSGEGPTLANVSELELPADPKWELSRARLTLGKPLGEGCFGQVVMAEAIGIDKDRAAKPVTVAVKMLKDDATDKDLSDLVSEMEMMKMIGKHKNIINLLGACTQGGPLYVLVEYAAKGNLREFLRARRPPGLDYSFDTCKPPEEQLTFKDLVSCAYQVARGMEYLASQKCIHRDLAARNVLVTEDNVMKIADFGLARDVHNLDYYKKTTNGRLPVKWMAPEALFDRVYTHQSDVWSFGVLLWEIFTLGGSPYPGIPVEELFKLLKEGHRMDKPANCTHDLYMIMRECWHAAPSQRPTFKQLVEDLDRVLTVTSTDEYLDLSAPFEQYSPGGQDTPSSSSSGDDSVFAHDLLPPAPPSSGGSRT
smiles,measurement,setting,value
"Oc1cc(O)c2c(c1)O[C@H](c1ccc(O)c(O)c1)[C@H](O)C2 [(−)-epicatechin, (2R,3R)-2-(3,4-dihydroxyphenyl)-3,4-dihydro-2H-chromene-3,5,7-triol]",spatial memory deficits (NOL),[1]; [11],rescue
same,"spatial memory deficits (NOL), exploration of relocated object","[1]; daily subcutaneous 0.15 mg/kg, at least seven days, 4 months old male mice, vs control littermates p=0,9538",sufficient to restore
same,episodic memory deficits (NOR),[2]; [11],rescue
same,"episodic memory deficits (NOR), exploration of novel object","[2]; daily subcutaneous 0.15 mg/kg, at least seven days, 4 months old male mice, vs control littermates p=0,8697",sufficient to restore
same,memory deficits in the NOR paradigm,[3],reversed the memory deficits
same,coping strategy to an inescapable stress (FST),[4],reestablished the coping strategy
same,antidepressant effect (TST),[5],rescue
same,antidepressant effect (FST),"[6]; bottle treatment 3 mg/L, 4 weeks",rescue
same,antidepressant effect,"[6]; subcutaneous injection, FST and TST of FIG. 1",rescue
same,spatial memory deficits (Morrys Water Maze),[7],rescue
same,associative memory deficits (CFC),[8],rescue
same,locomotion and coordination fine (Bar beam),[9],rescue
same,efficacy in skeletal anomalies,[10]; FGFR3 related Achondroplasia mouse model (Martin et al 2021),showed the efficacy
same,functional activation of the FGFR3 downstream signalling pathway,[10]; [12],sufficient to abolish or eliminating
same,impairment of the ciliogenesis,[10]; [12],restore
same,binding specificity for FGFR3,FGFR3,highest binding specificity
